How the values were obtained:
Type in all cases: in vivo
Tomato = experiment: Example 1 phytotoxicity, general injury (PHYGEN) on tomato; settings: appl. A
Text: “Low Phytotoxicity” of pelargonic acid, as used herein means that the toxic effect on plants is absent or at such a level so as not to adversely impact the growth and/or yield of the plant under a given set of test conditions, e.g., at a given concentration of pelargonic acid. Phytotoxic effects may be measured in a number of different ways, for example, according to the principals set out in OEPP/EPPO Bulletin (2014) 44(3), 265-273 “PP 1/135 (4) Phytotoxicity assessment”. The phytotoxic effect on plants may be assessed visually as a function of the percentage of discoloration to the leaves and/or the appearance of necrosis. When the pelargonic acid compositions are applied to the foliage of the vegetable plants in accordance with the teachings herein, will typically result in a level of phytotoxicity of less than 20%, preferably less than 15%, more preferably less than 10% necrosis of the leaves in comparison to untreated plants. Preferred uses of the invention will typically result in phytotoxicity of 7% or less, whilst the most preferred uses will typically result in phytotoxicity of 5% or less. The above values are approximate as any purely visual assessment is likely to contain a degree of subjectivity.
Trial conducted in 4 replicates on plots of 10 plants each. Application A was made at the occurrence of the insects.

Tuta absoluta = experiment: Example 2 tomato trial, Tuta absoluta (tomato leafminer) control; settings: appl. AB
Protocol: Tomato—Tuta absoluta (Tomato Leafminer)
Trial conducted in 4 replicates on plots of 25 plants each. Application was made at the occurrence of the insects.
Insects present at the time of application: at App A 0.3/plot, at App B in untreated: 34/plot
Efficacy is assessed by checking on the leaves the % of damage caused by the insects.

Halyomorpha halys = experiment: Example 13 egg trial, egg mass immersion bioassay on Halyomorpha halys; settings: for % Live instars emerged: egg mass immersion
Protocol: Halyomorpha halys were obtained from a lab strain that was mass reared for several generations from a field strain. Egg masses were provided at the same stage (2-3 days before hatching) in order to test same egg masses conditions.
Bioassay, consisting in egg masses immersion, was carried out dipping the egg masses by means of lab forceps for two second inside three different PA product concentrations (100 ppm, 50 ppm and 33 ppm), one treatment with a commercial standard (Trebon up, a.i., Etofenprox) and a treatment with only water (untreated Check) were performed. 4 replicates were performed (1 egg mass is considered 1 replicate).
Assessments were conducted at 1, 2, 4 days after application, egg mortality and larvae hatching from eggs were recorded, raw data were processed with ARM software. All the statistical procedures [Student-Newman-Keuls (SNK)], Anova and other calculation analysis were performed using the ARM 2020.0 software.

[1] = Halyomorpha halys, read-out: % Egg mortality

CCCCCCCCC(=O)O [PA, pelargonic acid]
Phytotoxicity - General Injury (PHYGEN) (Tomato; 650 g/ha (1 L/ha), 0 DAA): 0%
Phytotoxicity - General Injury (PHYGEN) (Tomato; 650 g/ha (1 L/ha), 2 DAA): 0%
Phytotoxicity - General Injury (PHYGEN) (Tomato; 650 g/ha (1 L/ha), 8 DAA): 0%
Phytotoxicity - General Injury (PHYGEN) (Tomato; 650 g/ha (1 L/ha), 15 DAA): 0%
Phytotoxicity - General Injury (PHYGEN) (Tomato; 1300 g/ha (2 L/ha), 0 DAA): 0%
Phytotoxicity - General Injury (PHYGEN) (Tomato; 1300 g/ha (2 L/ha), 2 DAA): 0%
Phytotoxicity - General Injury (PHYGEN) (Tomato; 1300 g/ha (2 L/ha), 8 DAA): 0%
Phytotoxicity - General Injury (PHYGEN) (Tomato; 1300 g/ha (2 L/ha), 15 DAA): 0%
Phytotoxicity - General Injury (PHYGEN) (Tomato; 2600 g/ha (4 L/ha), 0 DAA): 0%
Phytotoxicity - General Injury (PHYGEN) (Tomato; 2600 g/ha (4 L/ha), 2 DAA): 0%
Phytotoxicity - General Injury (PHYGEN) (Tomato; 2600 g/ha (4 L/ha), 8 DAA): 0%
Phytotoxicity - General Injury (PHYGEN) (Tomato; 2600 g/ha (4 L/ha), 15 DAA): 0%
# Damaged leaves (Tuta absoluta; 1300 g/ha (2 L/ha), 3 DAA): 47 % UNCK
# Damaged leaves (Tuta absoluta; 1300 g/ha (2 L/ha), 3 DAB): 31 % UNCK
# Damaged leaves (Tuta absoluta; 1300 g/ha (2 L/ha), 7 DAA): 68 % UNCK
# Damaged leaves (Tuta absoluta; 1300 g/ha (2 L/ha), 7 DAB): 32 % UNCK
# Damaged leaves (Tuta absoluta; 1300 g/ha (2 L/ha), 14 DAA): 70 % UNCK
# Damaged leaves (Tuta absoluta; 1950 g/ha (3 L/ha), 3 DAA): 51 % UNCK
# Damaged leaves (Tuta absoluta; 1950 g/ha (3 L/ha), 3 DAB): 42 % UNCK
# Damaged leaves (Tuta absoluta; 1950 g/ha (3 L/ha), 7 DAA): 69 % UNCK
# Damaged leaves (Tuta absoluta; 1950 g/ha (3 L/ha), 7 DAB): 46 % UNCK
# Damaged leaves (Tuta absoluta; 1950 g/ha (3 L/ha), 14 DAA): 72 % UNCK
# Damaged leaves (Tuta absoluta; 2600 g/ha (4 L/ha), 3 DAA): 58 % UNCK
# Damaged leaves (Tuta absoluta; 2600 g/ha (4 L/ha), 3 DAB): 47 % UNCK
# Damaged leaves (Tuta absoluta; 2600 g/ha (4 L/ha), 7 DAA): 74 % UNCK
# Damaged leaves (Tuta absoluta; 2600 g/ha (4 L/ha), 7 DAB): 42 % UNCK
# Damaged leaves (Tuta absoluta; 2600 g/ha (4 L/ha), 14 DAA): 78 % UNCK
# Damaged leaves (Tuta absoluta; 5200 g/ha (8 L/ha), 3 DAA): 59 % UNCK
# Damaged leaves (Tuta absoluta; 5200 g/ha (8 L/ha), 3 DAB): 42 % UNCK
# Damaged leaves (Tuta absoluta; 5200 g/ha (8 L/ha), 7 DAA): 75 % UNCK
# Damaged leaves (Tuta absoluta; 5200 g/ha (8 L/ha), 7 DAB): 49 % UNCK
# Damaged leaves (Tuta absoluta; 5200 g/ha (8 L/ha), 14 DAA): 75 % UNCK
mortality at 33 ppm (Halyomorpha halys; [1]): 17%
mortality at 50 ppm (Halyomorpha halys; [1]): 46%
mortality at 100 ppm (Halyomorpha halys; [1]): 65%
% Live instars emerged (Halyomorpha halys; 33 ppm ai (3.3 ml/l)): 47%
% Live instars emerged (Halyomorpha halys; 50 ppm ai (5 ml/l)): 18%
% Live instars emerged (Halyomorpha halys; 100 ppm ai (10 ml/l)): 5%
